# According to paper PMC6152318 (Molecules : A Journal of Synthetic Chemistry and Natural …, 2017):
# Experiments:
# [1] = biological target: T1, Human serum albumin (HSA) (Homo sapiens, UniProt P02768); experiment: Binding constants by quenching of HSA tryptophan fluorescence
# T1 construct: Fatty acid free HSA and warfarin sodium were purchased from Sigma-Aldrich; purchased Sigma-Aldrich (St. Louis, MO, USA)
# Experimental: In all experiments, the final co-solvent concentration was held below 5%. This was done to prevent conformational changes of HSA due to changes in dielectric constant of the solvent.
# Steady-state fluorescence was recorded using a thermostated Safas Xenius fluorometer (Safas Monaco, Monaco) with an integrated stirrer. All studies were performed at 25 ± 1 °C using 10 nm excitation and emission slit widths. […] Measurements were performed in duplicate.
# A stock solution of a single ligand was gradually added via syringe to a 2 mL of a 6 μM HSA solution placed in a quartz cell. Measurements were conducted at the excitation wavelength of 295 nm and emission was recorded in the 310–400 nm range enabling calculations of corresponding binding constants. […] Binding constants were determined according to Dufour and Dangles. A Scatchard analysis was performed assuming n identical binding sites on HSA. Values for binding constant (K), molar fluorescence intensity of the complex (f), and the stoichiometric coefficient (n) were estimated by fitting the F vs. Lt curves against Equations (1) and (2) using a least-square regression program Scientist (MicroMath, Salt Lake City, UT, USA), where F is fluorescence intensity, [L] the free ligand concentration, [Lt] the total ligand concentration, and c the total albumin concentration. […] In all cases, the inner filter effect was taken into account by using absorption of free ligands at excitation and emission wavelengths (εex and εem, respectively) (Equation (3)), where Fcorr is the fluorescence corrected for the inner filter effect, F0 is the measured fluorescence, ε is the sum of εex and εem, l = 0.65 is the optical path and c is the flavonoid concentration. (1) Fcorr=fcnK[L]/1+K[L] (2) [Lt]=[L](1+ncK/1+K[L]) (3) F0=Fcorr×10^−εlc
# [2] = biological target: Human serum albumin (HSA) IIA binding site (Homo sapiens, UniProt P02768); experiment: Flavonoid fluorescence (excitation 450 nm) on HSA pre-saturated with warfarin (simultaneous binding / displacement)
# Sequence of Human serum albumin (HSA) IIA binding site (P02768 25-609): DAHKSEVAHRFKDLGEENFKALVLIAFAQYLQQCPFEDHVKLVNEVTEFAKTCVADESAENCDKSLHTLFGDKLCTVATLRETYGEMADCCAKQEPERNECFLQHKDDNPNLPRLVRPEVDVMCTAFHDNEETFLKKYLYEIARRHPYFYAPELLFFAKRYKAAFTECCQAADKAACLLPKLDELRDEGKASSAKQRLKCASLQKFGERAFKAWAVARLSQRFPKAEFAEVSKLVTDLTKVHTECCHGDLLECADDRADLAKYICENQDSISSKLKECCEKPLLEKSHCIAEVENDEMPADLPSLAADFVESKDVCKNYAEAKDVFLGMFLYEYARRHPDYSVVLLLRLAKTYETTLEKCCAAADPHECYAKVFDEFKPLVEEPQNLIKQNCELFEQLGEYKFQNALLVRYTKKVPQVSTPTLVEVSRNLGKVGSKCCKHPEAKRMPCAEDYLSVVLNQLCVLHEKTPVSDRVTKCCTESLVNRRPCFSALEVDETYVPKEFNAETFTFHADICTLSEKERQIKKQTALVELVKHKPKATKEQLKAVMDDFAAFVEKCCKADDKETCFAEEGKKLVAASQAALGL
# Experimental: HSA was freshly dissolved in Dulbecco’s phosphate-buffered saline pH 7.4 (137 mM sodium chloride, 2.7 mM potassium chloride, 8.1 mM disodium hydrogen phosphate, 1.47 mM potassium dihydrogen phosphate) immediately before measurements. […]. In all experiments, the final co-solvent concentration was held below 5%. This was done to prevent conformational changes of HSA due to changes in dielectric constant of the solvent.
# Steady-state fluorescence was recorded using a thermostated Safas Xenius fluorometer (Safas Monaco, Monaco) with an integrated stirrer. All studies were performed at 25 ± 1 °C using 10 nm excitation and emission slit widths. […] Higher concentrations of HSA and ligands were not used due to poor solubility of ligands and high influence of ligand absorption. Measurements were performed in duplicate.
# [3] = Flavonoid fluorescence in buffer solution without HSA
# [4] = HSA 0-92% saturated with warfarin
# T1 sequence (P02768 25-609): as above
compound,measurement,setting,value
O=c1cc(-c2ccc(O)c(O)c2)oc2cc(O)cc(O)c12 [Luteolin],Kd,[1],8.2 µM
same,Effect of warfarin on flavonoid Fmax (maximum fluorescence),[2]; [4],no noticeable change
same,Effect of warfarin on flavonoid cmax (concentration needed to achieve Fmax),[2]; [4],no noticeable change
same,Absolute fluorescence intensity,"[2]; flavonoid 2,00 uM, 0% occupied HSA","3,5310"
same,Absolute fluorescence intensity,"[2]; flavonoid 2,00 uM, 22% occupied HSA","3,0516"
same,Absolute fluorescence intensity,"[2]; flavonoid 2,00 uM, 38% occupied HSA","3,2663"
same,Absolute fluorescence intensity,"[2]; flavonoid 2,00 uM, 63% occupied HSA","2,9688"
same,Absolute fluorescence intensity,"[2]; flavonoid 2,00 uM, 92% occupied HSA","3,0838"
same,Absolute fluorescence intensity,"[2]; flavonoid 4,00 uM, 0% occupied HSA","5,6541"
same,Absolute fluorescence intensity,"[2]; flavonoid 4,00 uM, 22% occupied HSA","5,0287"
same,Absolute fluorescence intensity,"[2]; flavonoid 4,00 uM, 38% occupied HSA","5,0961"
same,Absolute fluorescence intensity,"[2]; flavonoid 4,00 uM, 63% occupied HSA","4,7527"
same,Absolute fluorescence intensity,"[2]; flavonoid 4,00 uM, 92% occupied HSA","4,7445"
same,Absolute fluorescence intensity,"[2]; flavonoid 6,00 uM, 0% occupied HSA","7,6599"
same,Absolute fluorescence intensity,"[2]; flavonoid 6,00 uM, 22% occupied HSA","6,8528"
same,Absolute fluorescence intensity,"[2]; flavonoid 6,00 uM, 38% occupied HSA","6,8106"
same,Absolute fluorescence intensity,"[2]; flavonoid 6,00 uM, 63% occupied HSA","6,3873"
same,Absolute fluorescence intensity,"[2]; flavonoid 6,00 uM, 92% occupied HSA","6,5159"
same,Absolute fluorescence intensity,"[2]; flavonoid 7,99 uM, 0% occupied HSA","9,4059"
same,Absolute fluorescence intensity,"[2]; flavonoid 7,99 uM, 22% occupied HSA","8,8217"
same,Absolute fluorescence intensity,"[2]; flavonoid 7,99 uM, 38% occupied HSA","8,5002"
same,Absolute fluorescence intensity,"[2]; flavonoid 7,99 uM, 63% occupied HSA","7,8443"
same,Absolute fluorescence intensity,"[2]; flavonoid 7,99 uM, 92% occupied HSA","8,1746"
same,Absolute fluorescence intensity,"[2]; flavonoid 11,98 uM, 0% occupied HSA","11,5397"
same,Absolute fluorescence intensity,"[2]; flavonoid 11,98 uM, 22% occupied HSA","11,3861"
same,Absolute fluorescence intensity,"[2]; flavonoid 11,98 uM, 38% occupied HSA","11,3711"
same,Absolute fluorescence intensity,"[2]; flavonoid 11,98 uM, 63% occupied HSA","10,9648"
same,Absolute fluorescence intensity,"[2]; flavonoid 11,98 uM, 92% occupied HSA","10,4774"
same,Absolute fluorescence intensity,"[2]; flavonoid 15,97 uM, 0% occupied HSA","14,0865"
same,Absolute fluorescence intensity,"[2]; flavonoid 15,97 uM, 22% occupied HSA","14,1260"
same,Absolute fluorescence intensity,"[2]; flavonoid 15,97 uM, 38% occupied HSA","13,9507"
same,Absolute fluorescence intensity,"[2]; flavonoid 15,97 uM, 63% occupied HSA","13,0693"
same,Absolute fluorescence intensity,"[2]; flavonoid 15,97 uM, 92% occupied HSA","12,9194"
same,Absolute fluorescence intensity,"[2]; flavonoid 23,93 uM, 0% occupied HSA","17,9442"
same,Absolute fluorescence intensity,"[2]; flavonoid 23,93 uM, 22% occupied HSA","17,8085"
same,Absolute fluorescence intensity,"[2]; flavonoid 23,93 uM, 38% occupied HSA","17,8530"
same,Absolute fluorescence intensity,"[2]; flavonoid 23,93 uM, 63% occupied HSA","17,0150"
same,Absolute fluorescence intensity,"[2]; flavonoid 23,93 uM, 92% occupied HSA","16,3518"
same,Absolute fluorescence intensity,"[2]; flavonoid 31,87 uM, 0% occupied HSA","20,8667"
same,Absolute fluorescence intensity,"[2]; flavonoid 31,87 uM, 22% occupied HSA","20,4964"
same,Absolute fluorescence intensity,"[2]; flavonoid 31,87 uM, 38% occupied HSA","20,5131"
same,Absolute fluorescence intensity,"[2]; flavonoid 31,87 uM, 63% occupied HSA","19,6701"
same,Absolute fluorescence intensity,"[2]; flavonoid 31,87 uM, 92% occupied HSA","19,1278"
same,Absolute fluorescence intensity,"[2]; flavonoid 39,80 uM, 0% occupied HSA","22,9301"
same,Absolute fluorescence intensity,"[2]; flavonoid 39,80 uM, 22% occupied HSA","22,5924"
same,Absolute fluorescence intensity,"[2]; flavonoid 39,80 uM, 38% occupied HSA","22,2082"
same,Absolute fluorescence intensity,"[2]; flavonoid 39,80 uM, 63% occupied HSA","21,6524"
same,Absolute fluorescence intensity,"[2]; flavonoid 39,80 uM, 92% occupied HSA","20,8642"
same,Absolute fluorescence intensity,"[2]; flavonoid 47,71 uM, 0% occupied HSA","24,5206"
same,Absolute fluorescence intensity,"[2]; flavonoid 47,71 uM, 22% occupied HSA","23,8063"
same,Absolute fluorescence intensity,"[2]; flavonoid 47,71 uM, 38% occupied HSA","23,5737"
same,Absolute fluorescence intensity,"[2]; flavonoid 47,71 uM, 63% occupied HSA","23,1678"
same,Absolute fluorescence intensity,"[2]; flavonoid 47,71 uM, 92% occupied HSA","22,5713"
same,Absolute fluorescence intensity,"[2]; flavonoid 63,49 uM, 0% occupied HSA","26,4505"
same,Absolute fluorescence intensity,"[2]; flavonoid 63,49 uM, 22% occupied HSA","25,9034"
same,Absolute fluorescence intensity,"[2]; flavonoid 63,49 uM, 38% occupied HSA","25,4318"
same,Absolute fluorescence intensity,"[2]; flavonoid 63,49 uM, 63% occupied HSA","24,8572"
same,Absolute fluorescence intensity,"[2]; flavonoid 63,49 uM, 92% occupied HSA","24,6423"
same,Absolute fluorescence intensity,"[2]; flavonoid 79,21 uM, 0% occupied HSA","26,9488"
same,Absolute fluorescence intensity,"[2]; flavonoid 79,21 uM, 22% occupied HSA","26,5002"
same,Absolute fluorescence intensity,"[2]; flavonoid 79,21 uM, 38% occupied HSA","26,5136"
same,Absolute fluorescence intensity,"[2]; flavonoid 79,21 uM, 63% occupied HSA","25,8191"
same,Absolute fluorescence intensity,"[2]; flavonoid 79,21 uM, 92% occupied HSA","25,3909"
same,Absolute fluorescence intensity,"[2]; flavonoid 98,77 uM, 0% occupied HSA","27,2939"
same,Absolute fluorescence intensity,"[2]; flavonoid 98,77 uM, 22% occupied HSA","27,2804"
same,Absolute fluorescence intensity,"[2]; flavonoid 98,77 uM, 38% occupied HSA","26,9116"
same,Absolute fluorescence intensity,"[2]; flavonoid 98,77 uM, 63% occupied HSA","26,1311"
same,Absolute fluorescence intensity,"[2]; flavonoid 98,77 uM, 92% occupied HSA","26,2198"
same,Absolute fluorescence intensity,"[2]; flavonoid 118,23 uM, 0% occupied HSA","27,1078"
same,Absolute fluorescence intensity,"[2]; flavonoid 118,23 uM, 22% occupied HSA","27,1338"
same,Absolute fluorescence intensity,"[2]; flavonoid 118,23 uM, 38% occupied HSA","26,9198"
same,Absolute fluorescence intensity,"[2]; flavonoid 118,23 uM, 63% occupied HSA","26,3501"
same,Absolute fluorescence intensity,"[2]; flavonoid 118,23 uM, 92% occupied HSA","26,3929"
same,Absolute fluorescence intensity,"[2]; flavonoid 137,59 uM, 0% occupied HSA","26,3217"
same,Absolute fluorescence intensity,"[2]; flavonoid 137,59 uM, 22% occupied HSA","26,7053"
same,Absolute fluorescence intensity,"[2]; flavonoid 137,59 uM, 38% occupied HSA","26,6416"
same,Absolute fluorescence intensity,"[2]; flavonoid 137,59 uM, 63% occupied HSA","26,1054"
same,Absolute fluorescence intensity,"[2]; flavonoid 137,59 uM, 92% occupied HSA","26,3918"
same,Absolute fluorescence intensity,"[2]; flavonoid 156,86 uM, 0% occupied HSA","25,8093"
same,Absolute fluorescence intensity,"[2]; flavonoid 156,86 uM, 22% occupied HSA","26,0626"
same,Absolute fluorescence intensity,"[2]; flavonoid 156,86 uM, 38% occupied HSA","26,1509"
same,Absolute fluorescence intensity,"[2]; flavonoid 156,86 uM, 63% occupied HSA","25,5239"
same,Absolute fluorescence intensity,"[2]; flavonoid 156,86 uM, 92% occupied HSA","25,7773"
same,Absolute fluorescence intensity,"[3]; flavonoid 2,00 uM","0,5984"
same,Absolute fluorescence intensity,"[3]; flavonoid 4,00 uM","0,7341"
same,Absolute fluorescence intensity,"[3]; flavonoid 7,99 uM","0,8094"
same,Absolute fluorescence intensity,"[3]; flavonoid 15,97 uM","0,8481"
same,Absolute fluorescence intensity,"[3]; flavonoid 31,87 uM","1,0538"
same,Absolute fluorescence intensity,"[3]; flavonoid 47,71 uM","1,3400"
same,Absolute fluorescence intensity,"[3]; flavonoid 63,49 uM","1,5045"
same,Absolute fluorescence intensity,"[3]; flavonoid 79,21 uM","1,7483"
same,Absolute fluorescence intensity,"[3]; flavonoid 118,23 uM","2,2774"
same,Absolute fluorescence intensity,"[3]; flavonoid 156,86 uM","2,8851"
